# Experimental data as given in patent US20230129485A1, “SYSTEM AND METHOD FOR DETERMINING MATERIAL PROPERTIES OF MOLECULAR SYSTEMS FROM AN AB-INITIO PARAMETERIZED FORCE-FIELD” (InterX, Inc., priority 2021, published 2023).
# Where two headings read alike, the source gives them in different places.
# Columns and labels:
# [1] = Free energy of hydration by Solvation Model Dielectric (SMD) implicit solvent model; details: absolute error vs Exp (hydration)
# Method in brief: (§1)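 The set is limited to molecules shared with the QM-parameterized force field calculations for the SMD, PCM and COSMO-RS models. SMD and PCM predictions came from an outside source, while COSMO solvation free energies were generated in-house with MolPro.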
# [2] = Free energy of hydration by COSMO-RS
# Method in brief: as §1
# [3] = Free energy of hydration by Free Energy Machine Learning Model (FML); details: absolute error vs Exp (hydration)
# Text: Machine learning models can be used for free energy determination.
# [4] = Free energy of hydration predicted with the QM-parameterized force field model (ARROW FF), classical MD and PIMD simulation in a water box; details: for Arrow PIMD8 Error: absolute error vs Exp (hydration); for Arrow error: Table 5, error of Arrow PIMD8 hydration free energy vs experiment
# Method in brief: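 Solute decoupled from solvent in a 32×32×32 Å3 water box (PME, 9 Å cutoffs), electrostatics, exchange-repulsion and dispersion switched off together over 15 lambda points with soft-coring. Steepest-descent minimization, 50 ps equilibration, 1 ns NPT production at 1 atm; classical and path-integral MD. Free energy from BAR and TI.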
# [5] = Free energy of hydration by Polarizable Continuum Model (PCM); details: absolute error vs Exp (hydration)
# Method in brief: as §1
# [6] = implicit solvent model, values received; cited from earlier work
# [7] = Free energy of hydration by COSMO implicit solvent model (MolPro ver. 2012); details: absolute error vs Exp (hydration)
# Method in brief: as §1
# [8] = experimental, cited from earlier work; for Exp (hydration): Table 5
# [9] = implicit solvent model, values received; cited from earlier work; remark: listed apart in the source
# [10] = Free energy of hydration predicted by polarizable AMOEBA force field, from literature; details: Table 5; error of AMOEBA hydration free energy vs experiment
# [11] = Free energy of hydration predicted by General Amber Force Field (GAFF), from literature; details: Table 5; error of GAFF hydration free energy vs experiment
# [12] = experimental, cited from earlier work
# [13] = Table 5; free energy of hydration, AMOEBA prediction taken from literature; cited from earlier work
# [14] = Free energy of solvation in cyclohexane predicted with the QM-parameterized force field model (ARROW FF), MD and PIMD; details: Table 4; for CHEX Arrow MD Error: error of MD cyclohexane solvation free energy vs experiment; for CHEX Arrow PIMD4 Error: error of PIMD4 cyclohexane solvation free energy vs experiment
# Method in brief: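 Solute–cyclohexane interactions decoupled over 15 λ points with soft-core scaling, in MD and path-integral simulations under NPT at 1 atm using PME electrostatics and 9 Å cutoffs. Each window had 50 ps equilibration and 1 ns production; free energies from BAR and TI.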
# [15] = CHEX/H2O partition coefficient (log D) predicted with the QM-parameterized force field model (ARROW FF)
# Method in brief: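 Cyclohexane/water partition coefficients were predicted by molecular simulation with a QM-parameterized force field, with bonded force constants and equilibrium values fitted to MP2/aug-cc-pVTZ energies. Solutes carried neutral functional groups, and results from four independent groups were averaged.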
# [16] = CHEX/H2O partition coefficient, experimental, cited from earlier work; for Exp (log D): Table 3; for logD Exp (logD): Table 4
# [17] = Table 5; free energy of hydration, GAFF prediction taken from literature; cited from earlier work
# [18] = Table 3, absolute error of MD hydration free energy vs experiment
# [19] = Table 3, absolute error of PIMD8 hydration free energy vs experiment
# [20] = Table 3, free energy of hydration
# [21] = Table 3, free energy of solvation in cyclohexane
# [22] = Table 4, solvation free energy in cyclohexane
# [23] = Table 4, error of MD hydration free energy vs experiment
# [24] = Table 4, error of PIMD8 hydration free energy vs experiment
# [25] = Table 4, error of MD logD vs experiment
# [26] = Table 4, error of PIMD logD vs experiment
# [27] = Table 4, neutral amino-acid analogues
Structure (SMILES),SMD Error [1] [kcal/mol],COSMO-RS error [2] [kcal/mol],FML error [3] [kcal/mol],"water Arrow MD Error [4, 18] [kcal/mol]","water Arrow PIMD8 Error [4, 19] [kcal/mol]",Arrow PIMD8 Error [4] [kcal/mol],PCM Error [5] [kcal/mol],PCM free energy of hydration [6] [kcal/mol],COSMO/Molpro Error [7] [kcal/mol],"water Exp (hydration) [8, 20] [kcal/mol]",SMD free energy of hydration [9] [kcal/mol],AMOEBA error [10] [kcal/mol],GAFF error [11] [kcal/mol],"CHEX Exp (solvation) [12, 22] [kcal/mol]",AMOEBA [13] [kcal/mol],"water Arrow MD Error [4, 23] [kcal/mol]",Arrow error [4] [kcal/mol],CHEX Arrow MD Error [14] [kcal/mol],CHEX Arrow PIMD4 Error [14] [kcal/mol],GAFF [17] [kcal/mol],also measured
CCCCCO [1-Pentanol],0.47,0.11,0.30,1.18,0.05,0.05,1.17,-3.30,2.21,-4.47,-4.00,–,–,–,–,–,–,–,–,–,–
CCC(C)O (stereo not drawn) [2-Butanol],–,0.77,0.61,1.41,0.08,0.08,–,–,1.11,-4.58,–,–,–,–,–,–,–,–,–,–,–
CCCC(C)O (stereo not drawn) [2-Pentanol],–,–,0.40,1.68,0.08,0.08,–,–,1.38,-4.39,–,–,–,–,–,–,–,–,–,–,–
CCC(O)CC [3-Pentanol],–,–,0.58,1.36,0.15,0.15,–,–,1.01,-4.35,–,–,–,–,–,–,–,–,–,–,–
CCCC [Butane],0.10,0.03,–,0.70,0.04,0.04,2.30,-0.20,2.65,2.10,2.00,0.99,0.44,-2.72,1.11,0.70,0.04,0.46,0.20,2.54,"CHEX Exp (solvation) [12, 21]: -2.72 kcal/mol; water Arrow PIMD8 Error [4, 24]: 0.04 kcal/mol; log D Arrow MD Error ([15]; Table 3, absolute error of MD log D vs experiment): 0.18; log D Arrow PIMD Error ([15]; Table 3, absolute error of PIMD log D vs experiment): 0.17; logD Arrow MD Error [15, 25]: 0.18; logD Arrow PIMD Error [15, 26]: 0.17; Exp (log D) [16]: 3.54; logD Exp (logD) [16]: 3.54; water Exp (hydration) [8, 27]: 2.10 kcal/mol; Exp (hydration) ([8]; free energy of hydration): 2.10 kcal/mol"
C1CC1 [Cyclopropane],0.65,0.40,0.76,0.30,0.29,0.29,1.35,-0.60,2.05,0.75,0.10,–,–,–,–,–,–,–,–,–,–
C1CCCC1 [Cyctopentane],0.10,0.17,0.32,–,–,0.12,1.40,-0.20,–,–,1.30,–,–,–,–,–,–,–,–,–,–
CCSC [EthylMethylSulfide],–,–,–,0.47,0.11,0.11,–,–,2.70,-1.5,–,0.48,1.84,-3.78,-1.98,0.47,0.11,0.83,0.51,0.34,"CHEX Exp (solvation) [12, 21]: -3.78 kcal/mol; water Arrow PIMD8 Error [4, 24]: 0.11 kcal/mol; log D Arrow MD Error [15]: 0.27; log D Arrow PIMD Error [15]: 0.29; logD Arrow MD Error [15]: 0.27; logD Arrow PIMD Error [15]: 0.29; Exp (log D) [16]: 1.67; logD Exp (logD) [16]: 1.67; water Exp (hydration) [8, 27]: -1.5 kcal/mol; Exp (hydration) ([8]; free energy of hydration): -1.50 kcal/mol"
CS [MethaneThiol],0.42,–,–,0.79,0.43,0.43,0.88,-2.10,2.71,-1.219,-0.80,0.98,0.41,-2.46,-0.26,0.79,0.43,0.39,0.30,-0.83,"logD Arrow MD Error [15, 25]: 0.29; logD Arrow PIMD Error [15, 26]: 0.09; logD Exp (logD) [16]: 0.91; water Exp (hydration) [8, 27]: -1.219 kcal/mol; Exp (hydration) ([8]; free energy of hydration): -1.24 kcal/mol; Exp (hydration) free energy of hydration [8]: -1.22 kcal/mol"
CO [Methanol],0.91,0.18,–,0.28,0.35,0.35,1.91,–,1.37,–,–,0.32,0.74,-1.29,-4.79,0.28,0.33,0.42,0.24,-4.37,"CHEX Exp (solvation) [12, 21]: -1.29 kcal/mol; water Arrow PIMD8 Error [4, 24]: 0.35 kcal/mol; log D Arrow MD Error [15]: 0.10; log D Arrow PIMD Error [15]: 0.43; logD Arrow MD Error [15]: 0.10; logD Arrow PIMD Error [15]: 0.43; Exp (log D) [16]: −2.80; logD Exp (logD) [16]: −2.80"
Cc1ccccc1 [Toluene],0.59,0.12,–,0.83,0.10,0.10,0.71,-1.60,2.41,-0.89,-0.30,0.64,0.18,-4.90,-1.53,0.83,0.10,0.94,0.62,-0.71,"CHEX Exp (solvation) [12, 21]: -4.90 kcal/mol; water Arrow PIMD8 Error [4, 24]: 0.10 kcal/mol; water Exp (hydration) [8, 27]: -0.89 kcal/mol; Exp (hydration) ([8]; free energy of hydration): -0.89 kcal/mol"
CC=O [acetaldehyde],0.30,0.18,0.03,0.18,0.27,0.27,0.20,–,3.97,–,–,–,–,–,–,–,–,–,–,–,–
